Laboratory results: PMC10023679, “Amide-to-ester substitution as a stable alternative to N-methylation for increasing membrane permeability in cyclic peptides” (Nature Communications, 2023)
Where two headings read alike, the source gives them in different places. Non-standard residues stand in square brackets, D forms with d. Residues, ends and D or L forms follow the SMILES beside them. NMeY = CN[C@@H](Cc1ccc(O)cc1)C(=O)O; Hpla = O=C(O)[C@@H](O)Cc1ccc(O)cc1; Hica(2S) = CC(C)C[C@H](O)C(=O)O

Legend:
[1] = 1,9-decadiene-water distribution coefficient; type: physicochemical; settings: decadiene and aqueous buffer
[2] = Mouse serum stability; type: in vitro ADME; settings: mouse serum containing 1% DMSO, 37 °C; for Stability in mouse serum: up to 24 h
Protocol: Compounds were incubated in mouse serum containing 1% DMSO at 37 °C for 24 h in triplicate. At each time point, 20 μL of the solution was aliquoted and diluted four times using acetonitrile to precipitate serum proteins. After centrifugation, the supernatant was diluted with water and the concentration of the intact peptide was quantified by LC-MS. For other peptides, the amount of residual intact peptides was evaluated after incubation in mouse plasma at 37 °C for 30 min. The amount of intact peptides was determined by taking the ratio of the LC-MS peak area of intact peptides just before and after the incubation.

[3] = Stability in simulated gastric fluid (SGF); type: in vitro ADME; settings: SGF-containing pepsin, pH 1.2, 37 °C, 1–4 h
Protocol: The stability assay of peptides in SGF was conducted according to United States Pharmacopeia & National Formulary (USP 25-NF 20)[64] and the previous report[65] with some modifications as follows. SGF used in this study was prepared by dissolving pepsin (3.6 mg/mL) (Sigma, P7012, 3357 Unit/mg) in an aqueous solution of 2 mg/mL sodium chloride (NaCl) at pH 1.2. The solution was vortexed for 1 min, sonicated for 15 min, centrifuged at 20,000 × g for 10 min, and filtered before use. 57 μL of SGF was incubated at 37 °C for 15 min and 3 μL of 1 μM peptide solution in DMSO was added to the warmed […]. After 1, 2, or 4 h, 60 μL of ice-cold ultra-pure water containing 5% trifluoroacetic acid was added and 120 μL of 30% acetonitrile in ultra-pure water was added. The samples were filtered and injected into UPLC.

[4] = Stability in simulated intestinal fluid (SIF); type: in vitro ADME; settings: SIF-containing pancreatin, pH 6.8, 37 °C, 1–4 h
Protocol: The stability assay of peptides in SIF was conducted according to United States Pharmacopeia & National Formulary (USP 25-NF 20)[64] and the previous report[65] with some modifications as follows. SIF used in this study was prepared by dissolving pancreatin (1.25 mg/mL) (Sigma, P7545, 8 × USP specifications) in 50 mM phosphate buffer at pH 6.8. The solution was vortexed for 1 min, sonicated for 15 min, centrifuged at 20,000 × g for 10 min, and filtered before use. 57 μL of SIF was incubated at 37 °C for 15 min and 3 μL of 1 μM peptide solution in DMSO was added to the warmed […]. After 1, 2, or 4 h, 60 μL of ice-cold ultra-pure water containing 5% trifluoroacetic acid was added and 120 μL of 30% acetonitrile in ultra-pure water was added. The samples were filtered and injected into UPLC.

[5] = Solubility assay; type: physicochemical; settings: phosphate buffer (pH 7.4) containing 1.2% DMSO, 37 °C, read-out: Water solubility
[6] = in vitro; type: in vitro ADME; settings: PAMPA
[7] = Caco-2 assay (permeability across cell monolayers); type: in vitro ADME; settings: for Papp: Caco-2, 1 μM compounds in HBSS (pH 7.4) containing 10 mM HEPES and 1% DMSO, 3 h incubation at 37 °C, read-out: Caco-2 permeability Pa; for efflux ratio: read-out: Efflux ratio, Pe (basolateral-to-apical)/Pe (apical-to-basolateral)
[8] = system: Caco-2 cells; test: Caco-2 assay (permeability across cell monolayers); type: in vitro ADME; settings: 55 μM

Row | SMILES | log Ddec/w (1,9-decadiene–water distribution coefficient) [1] | Stability in mouse serum [2] | Degradation in SGF [3] | Degradation in SIF [4] | solubility kinetic at 4 h [5] [µM] | Time within which degraded in mouse serum [2] [h] | Papp [6] [×10⁻⁶ cm/s] | Papp [7] [×10⁻⁶ cm/s] | efflux ratio ([7]; Caco-2, pH 7.4, Inhibitor (+): quinidine, sulfasalazine, benzbromarone, 2 h incubation) | efflux ratio ([7]; Caco-2, pH 7.4, Inhibitor (–), 1 μM, 2 h incubation) | Papp A→B ([7]; Caco-2, pH 7.4, Inhibitor (+): preincubated with 50 µM quinidine, 20 µM sulfasalazine, 30 µM benzbromarone, 2 h incubation, read-out: Pe (apical-to-basolateral)) [×10⁻⁶ cm/s] | Papp B→A ([7]; Caco-2, pH 7.4, Inhibitor (+): preincubated with 50 µM quinidine, 20 µM sulfasalazine, 30 µM benzbromarone, 2 h incubation, read-out: Pe (basolateral-to-apical)) [×10⁻⁶ cm/s] | Papp A→B at 2 h, 1 μM ([7]; human, Caco-2, pH 7.4, Inhibitor (–), 1 μM, 2 h incubation, read-out: Pe (apical-to-basolateral)) [×10⁻⁶ cm/s] | Papp B→A at 2 h, 1 μM ([7]; human, Caco-2, pH 7.4, Inhibitor (–), 1 μM, 2 h incubation, read-out: Pe (basolateral-to-apical)) [×10⁻⁶ cm/s] | Caco-2 permeability compared with CP1 at higher concentration [8]
1 | CC(C)C[C@@H]1NC(=O)[C@H](Cc2ccc(O)cc2)NC(=O)[C@H]2CCCN2C(=O)[C@H](CC(C)C)NC(=O)[C@H](CC(C)C)NC(=O)[C@@H](CC(C)C)NC1=O [CP1] (cyclo(LL[dP]YL[dL])) | −0.74 | stable | no significant degradation | no significant degradation | > 100 | – | – | – | – | – | – | – | – | – | –
2 | CC(C)C[C@H](NC(=O)[C@H](CC(C)C)NC(=O)[C@@H](CC(C)C)NC(=O)[C@H](CC(C)C)NC(=O)[C@H](Cc1ccc(O)cc1)OC(=O)[C@H]1CCCN1)C(N)=O [DP1L-NH2] (H-[dP][Hpla]L[dL]LL-NH2) | – | – | – | – | – | ≤ 2 | – | – | – | – | – | – | – | – | –
3 | CC(C)C[C@@H]1NC(=O)[C@H](Cc2ccc(O)cc2)OC(=O)[C@H]2CCCN2C(=O)[C@H](CC(C)C)NC(=O)[C@H](CC(C)C)NC(=O)[C@@H](CC(C)C)NC1=O [DP1] (cyclo(LL[dP][Hpla]L[dL])) | 1.2 | stable | no significant degradation | no significant degradation | – | – | 2.9 | 2 | – | – | – | – | – | – | –
4 | CC(C)C[C@@H]1NC(=O)[C@@H](CC(C)C)NC(=O)[C@H](CC(C)C)OC(=O)[C@H](Cc2ccc(O)cc2)NC(=O)[C@H]2CCCN2C(=O)[C@H](CC(C)C)NC1=O [DP2] (cyclo(LL[dP]Y[Hica(2S)][dL])) | – | – | – | – | – | – | 2 | 0.9 | 1.05 | 27.2 | 14.6 ± 3.5 | 15.3 ± 1.1 | 1.5 ± 0.4 | 40.8 ± 11 | significantly higher permeability than CP1
5 | CC(C)C[C@@H]1NC(=O)[C@@H](CC(C)C)NC(=O)[C@H](CC(C)C)NC(=O)[C@H](Cc2ccc(O)cc2)N(C)C(=O)[C@H]2CCCN2C(=O)[C@H](CC(C)C)NC1=O [MP1] (cyclo(LL[dP][NMeY]L[dL])) | 0.052 | stable | no significant degradation | no significant degradation | – | – | 1.7 | 0.6 | – | – | – | – | – | – | –
